Laboratory results as given in patent US20250136617A1 (The Regents of the University of Colorado, A Body Corporate, priority 2022, published 2025).
Entries after “also recorded” stand apart in the source; their conditions may differ. Where two headings read alike, the source gives them in different places.

Assays:
[1] = system: diabetic wounds in Db mice; assay: Diabetic wound healing, full-thickness excisional 8 mm wounds in Db mice; type: in vivo; details: for reduction of wound closure time vs PBS: 10 μM; for wound surface area vs PBS: post-injury day 6
Protocol: The ability of compound UCUF-728 to improve diabetic wound healing in vivo was examined. Full-thickness excisional 8 mm wounds were created in Db mice and were immediately treated with 10 μM UCUF-728 or phosphate-buffered saline (PBS) control. Wound healing over the course of 22 days was monitored. Initial wound size was calculated immediately after wounding, and wound closure was assessed over time as the percentage of initial wound area. […] The effect of UCUF-728 treatment on angiogenesis was assessed using immunohistochemistry for endothelial marker CD31. Representative photos of immunoperoxidase staining for CD31 at 7 days in diabetic wounds treated with PBS or UCUF-728 are shown in FIG. 8A.
The ability of UCUF-965, a thiadiazine compound, to improve diabetic wound healing in vivo was examined. Full-thickness excisional 8 mm wounds were created in Db mice and were immediately treated with 10 μM UCUF-965 or PBS control. Wound healing over the course of 22 days was monitored. Initial wound size was calculated immediately after wounding, and wound closure was assessed over time as the percentage of initial wound area. FIG. 13 indicated the wound healing effect of UCUF-965 topical administration on excision wound model on different days after injury. […] UCUF-965-treated diabetic wounds closed around 14 days after treatment whereas control PBS-treated wounds healed at day 22. UCUF-965 is a promising positive allosteric modulator of CXCR4 signaling to treat diabetic would healing.
All animal experiments were approved by the Institutional Animal Care and Use Committee at the University of Colorado Denver—Anschutz Medical Campus, and experimental protocols followed the guidelines described in the NIH Guide for the Care and Use of Laboratory Animals. In these experiments, 10 week old, female, genetically diabetic C57BKS.Cg-m/Leprdb/J (Db) mice and heterozygous, non-diabetic (non-Db), age-matched female controls from the Jackson Laboratory (Bar Harbor, ME) were used. Mice were anesthetized with inhaled isoflurane. Each mouse was shaved and depilated before wounding. The dorsal skin was swabbed with alcohol and Betadine (Purdue Pharma, Stamford, CT). Each mouse received a single, full-thickness dorsal wound (including panniculus carnosum) with an 8-mm punch biopsy (Miltex Inc, York, PA). After wounding, a Hamilton syringe was used to deliver 50 μL of either 10 uM test compound or PBS, as a control. 10 μL were injected intradermally at 12, 3, 6 and 9 o'clock and at the wound base. […] Mice pictures were taken every other day, wound size was analyzed by Image J. A full-thickness skin sample, centered on the wound, was harvested 3 and 7 days after surgery (n=5 per timepoint).

CXCR4 = CXCR4 (Homo sapiens, UniProt P61073); assay: β-arrestin recruitment, 384-well, Tango CXCR4-bla U2OS cells, normalized to SDF-1α; type: cell-based; set-up: host or cells: U2OS; details: for EC50: normalized to SDF-1α, read-out: ß-arrestin recruitment EC50
Method in brief: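 Tango CXCR4-bla U2OS cells plated in DMEM with 1% dialyzed FBS (FreeStyle 293 medium for thiadiazines), incubated overnight at 37 °C, then LiveBLAzer FRET B/G substrate added for 2 h in the dark. Fluorescence read; EC50 and Emax fitted with Hill slope 1.0, normalized to SDF-1α.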

Sequence of CXCR4 (P61073 whole entry): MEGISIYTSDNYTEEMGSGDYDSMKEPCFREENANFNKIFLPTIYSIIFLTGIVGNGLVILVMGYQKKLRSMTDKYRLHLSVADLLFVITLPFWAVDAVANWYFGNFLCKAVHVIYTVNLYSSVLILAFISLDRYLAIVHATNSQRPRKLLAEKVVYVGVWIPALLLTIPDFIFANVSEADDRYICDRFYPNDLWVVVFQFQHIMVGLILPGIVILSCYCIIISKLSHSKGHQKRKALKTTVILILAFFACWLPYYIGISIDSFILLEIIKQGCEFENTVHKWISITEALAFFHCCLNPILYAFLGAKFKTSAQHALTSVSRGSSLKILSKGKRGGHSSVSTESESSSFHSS

| SMILES | reduction of wound closure time vs PBS [1] [%] | wound surface area vs PBS [1] | β-arrestin recruitment activity (CXCR4) | Emax (CXCR4; U2OS, read-out: ß-arrestin recruitment Emax (%)) [%] | EC50 (CXCR4) [nM] | β-arrestin recruitment activity (CXCR4; listed as UCUF-965) |
| --- | --- | --- | --- | --- | --- | --- |
| COc1ccc(OC)c(NS(=O)(=O)c2ccc(-c3cnc(C4CC4)o3)cc2)c1 [Oxazole Entry 19, 4-(2-Cyclopropyloxazol-5-yl)-N-(2,5-dimethoxyphenyl)benzenesulfonamide] | 36 | decrease in wound surface area | dose-dependent partial activation of β-arrestin recruitment | 30 | 500 | – |
| CCOc1ccccc1-c1nnc2n1N=C(c1ccc(N3CCCC3)cc1)CS2 [Thiadiazine Entry 23, 3-(2-ethoxyphenyl)-6-(4-(pyrrolidin-1-yl)phenyl)-7H-[1,2,4]triazolo[3,4-b][1,3,4]thiadiazine] | 36 | decrease in wound surface area | – | – | 20 | dose-dependent partial activation of β-arrestin recruitment; also recorded: did not inhibit the action of SDF-1α |
